The record followed here is US20120040996A1, “3-BENZOFURANYL-INDOL-2-ONE DERIVATIVES SUBSTITUTED AT THE 3 POSITION, PREPARATION THEREOF, AND THERAPEUTIC USE THEREOF” (SANOFI, priority 2009, published 2012).

This assay has as its target T1, ghrelin receptor (Rattus norvegicus, UniProt O08725).
T1 construct: Strips of approximately 1 cm (5 mm wide) of gastric fundus were cut out along the longitudinal axis; from tissue; host or cells: rat gastric fundus strips
The experiment in a line: Ghrelin concentration-response on electrically stimulated isolated rat gastric fundus strips (headed "In Vivo Test"). As to conditions: electric-field stimulation, ghrelin 0.1 nM-1 μM, antagonist contact time 30 minutes, read-out: IC50, antagonist activity towards the ghrelin receptor. The protocol: Male Crl CD BR rats (Charles River, Italy) weighing 150-175 g were housed in a chamber at regulated temperature (22±1° C.) and humidity (55±10%) and with a 12-hour lightness-darkness cycle, for at least 7 days before their use. Feed and water were available ad libitum. The feed was removed 18 hours before sacrificing the animals. The rats were sacrificed by cervical dislocation, and the stomach was removed surgically, opened along the shorter curvature and placed in a Krebs solution (of composition (mM): 118.4 NaCl; 4.7 KCl; 2.5 CaCl2; 3.7 NaH2PO4; 1.2 MgSO4; 25 NaHCO3; 5.6 glucose). The animals were cared for and sacrificed according to the Sanofi-Aventis international code of ethics and the international principles governing the care and treatment of laboratory animals (EEC Directive 86/609, DJL358, 1, 12 Dec. 1987). […] The contractions were recorded by computer with a data recording and analysis system (Power Lab, Chart 5) connected to isotonic transducers (Ugo Basile, Varese, Italy) via preamplifiers (Octal Bridge Amp). […] The pKb values for the antagonists were calculated according to the Cheng-Prusoff equation (Kenakin et al., Competitive Antagonism, Pharmacologic Analysis of Drug-Receptor Interaction, 3rd edition, 331-373, Philadelphia, New York; Raven: Lippincott, 1997).

T1 sequence (O08725 whole entry): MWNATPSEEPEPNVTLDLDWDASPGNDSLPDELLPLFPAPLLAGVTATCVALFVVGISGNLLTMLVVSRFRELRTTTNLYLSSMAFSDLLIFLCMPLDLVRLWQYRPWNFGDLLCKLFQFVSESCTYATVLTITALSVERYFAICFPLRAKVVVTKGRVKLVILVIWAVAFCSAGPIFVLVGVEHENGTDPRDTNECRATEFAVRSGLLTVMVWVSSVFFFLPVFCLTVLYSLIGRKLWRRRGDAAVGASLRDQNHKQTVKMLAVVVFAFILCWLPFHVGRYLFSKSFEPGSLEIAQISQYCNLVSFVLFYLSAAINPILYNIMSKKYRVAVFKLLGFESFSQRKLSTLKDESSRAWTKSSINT

Turning to `CCN1CCN(CC(=O)NC2(c3ccc4occc4c3)C(=O)Nc3cc(Cl)cc(Cl)c32)CC1` (single isomer, unassigned; (+)) [Example 1, (+)-N-[4,6-Dichloro-3-(benzofuran-5-yl)-2-oxo-2,3-dihydro-1H-indol-3-yl]-2-(4-ethylpiperazin-1-yl)acetamide], the IC50 amounted to 22 nM.

The IC50 is the concentration that inhibits the measured activity by half.
